Laboratory results taken from patent publication US12390440B2, “Immunomodulating trifluoromethyl-aminal azalides” (Zoetis Services LLC, priority 2020, dated 2025).
Read-outs that look alike come from different tables or passages of the source.

Experiments:
IL-1β = assay: Bovine whole blood assay, IL-1β; format: cell-based; settings: overstimulation of IL-1β, perceived cellular toxicity concentration;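 note: compound concentration at which rising IL-1β release signals cytotoxicity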
Description: (§1) (protected from light) for 30 minutes.

TNF-α = assay: Bovine whole blood assay, LPS-induced TNF-α; format: cell-based; settings: Bos taurus, fresh whole bovine blood, LPS 1 μg/mL
Description: as §1

[1] = tested on: BRD pathogens, M. haemolytica and P. multocida; assay: MIC screening panel, BRD pathogens (CLSI broth micro-dilution)

IC50 (TNF-α) [µM]	Compound	IL-1β OS of LPS (IL-1β) [µM]	MIC ([1]; read-out: MIC flag (*) at Ex #) [µg/mL]	MIC ([1]; read-out: MIC flag (*) at Example #) [µg/mL]
5	CCNC[C@]1(O)[C@H](C)O[C@@H](O[C@H]2[C@H](C)[C@@H](O[C@@H]3O[C@H](C)C[C@H]4[C@H]3OC(C(F)(F)F)N4C)[C@](C)(O)C[C@@H](C)CN[C@H](C)[C@@H](O)[C@](C)(O)[C@@H](CC)OC(=O)[C@@H]2C)C[C@@]1(C)OC (stereo partly drawn) [Example A-5, (2R,3S,4R,5R,8R,10R,11R,12S,13S,14R)-11-(((3aR,4S,6R,7aS)-1,6-dimethyl-2-(trifluoromethyl)hexahydro-2H-pyrano[4,3-d]oxazol-4-yl)oxy)-2-ethyl-13-(((2R,4R,5S,6S)-5-((ethylamino)methyl)-5-hydroxy-4-methoxy-4,6-dimethyltetrahydro-2H-pyran-2-yl)oxy)-3,4,10-trihydroxy-3,5,8,10,12,14-hexamethyl-1-oxa-6-azacyclopentadecan-15-one]	5	–	–
101	CC[C@H]1OC(=O)[C@H](C)[C@@H](O[C@H]2C[C@@](C)(OC)[C@](O)(CNCc3ncc[nH]3)[C@H](C)O2)[C@H](C)[C@@H](O[C@@H]2O[C@H](C)C[C@H]3[C@H]2OC(C(F)(F)F)N3C)[C@](C)(O)C[C@@H](C)CN[C@H](C)[C@@H](O)[C@]1(C)O (stereo partly drawn) [Example A-11, (2R,3S,4R,5R,8R,10R,11R,12S,13S,14R)-13-(((2R,4R,5S,6S)-5-((((1H-imidazol-2-yl)methyl)amino)methyl)-5-hydroxy-4-methoxy-4,6-dimethyltetrahydro-2H-pyran-2-yl)oxy)-11-(((3aR,4S,6R,7aS)-1,6-dimethyl-2-(trifluoromethyl)hexahydro-2H-pyrano[4,3-d]oxazol-4-yl)oxy)-2-ethyl-3,4,10-trihydroxy-3,5,8,10,12,14-hexamethyl-1-oxa-6-azacyclopentadecan-15-one]	40	< 64	–
30	CC[C@H]1OC(=O)[C@H](C)[C@@H](O[C@H]2C[C@@](C)(OC)[C@](O)(CNCCn3cncn3)[C@H](C)O2)[C@H](C)[C@@H](O[C@@H]2O[C@H](C)C[C@H]3[C@H]2OC(C(F)(F)F)N3C)[C@](C)(O)C[C@@H](C)CN[C@H](C)[C@@H](O)[C@]1(C)O (stereo partly drawn) [Example A-14, (2R,3S,4R,5R,8R,10R,11R,12S,13S,14R)-13-(((2R,4R,5S,6S)-5-(((2-(1H-1,2,4-triazol-1-yl)ethyl)amino)methyl)-5-hydroxy-4-methoxy-4,6-dimethyltetrahydro-2H-pyran-2-yl)oxy)-11-(((3aR,4S,6R,7aS)-1,6-dimethyl-2-(trifluoromethyl)hexahydro-2H-pyrano[4,3-d]oxazol-4-yl)oxy)-2-ethyl-3,4,10-trihydroxy-3,5,8,10,12,14-hexamethyl-1-oxa-6-azacyclopentadecan-15-one]	40	< 64	–
28	CC[C@H]1OC(=O)[C@H](C)[C@@H](O[C@H]2C[C@@](C)(OC)[C@](O)(CNCCOCCO)[C@H](C)O2)[C@H](C)[C@@H](O[C@@H]2O[C@H](C)C[C@H]3[C@H]2OC(C(F)(F)F)N3C)[C@](C)(O)C[C@@H](C)CN[C@H](C)[C@@H](O)[C@]1(C)O (stereo partly drawn) [Example A-16, (2R,3S,4R,5R,8R,10R,11R,12S,13S,14R)-11-(((3aR,4S,6R,7aS)-1,6-dimethyl-2-(trifluoromethyl)hexahydro-2H-pyrano[4,3-d]oxazol-4-yl)oxy)-2-ethyl-3,4,10-trihydroxy-13-(((2R,4R,5S,6S)-5-hydroxy-5-(((2-(2-hydroxyethoxy)ethyl)amino)methyl)-4-methoxy-4,6-dimethyltetrahydro-2H-pyran-2-yl)oxy)-3,5,8,10,12,14-hexamethyl-1-oxa-6-azacyclopentadecan-15-one]	40	–	–
141	CC[C@H]1OC(=O)[C@H](C)[C@@H](O[C@H]2C[C@@](C)(OC)[C@](O)(CNCCS(N)(=O)=O)[C@H](C)O2)[C@H](C)[C@@H](O[C@@H]2O[C@H](C)C[C@H]3[C@H]2OC(C(F)(F)F)N3C)[C@](C)(O)C[C@@H](C)CN[C@H](C)[C@@H](O)[C@]1(C)O (stereo partly drawn) [Example A-20, 2-((((2S,3S,4R,6R)-6-(((2R,3S,4R,5R,8R,10R,11R,12S,13S,14R)-11-(((3aR,4S,6R,7aS)-1,6-dimethyl-2-(trifluoromethyl)hexahydro-2H-pyrano[4,3-d]oxazol-4-yl)oxy)-2-ethyl-3,4,10-trihydroxy-3,5,8,10,12,14-hexamethyl-15-oxo-1-oxa-6-azacyclopentadecan-13-yl)oxy)-3-hydroxy-4-methoxy-2,4-dimethyltetrahydro-2H-pyran-3-yl)methyl)amino)ethane-1-sulfonamide]	100	–	–

The next lines start with the compound.

Compound	IC50 (TNF-α) [µM]	IL-1β OS of LPS (IL-1β) [µM]	MIC ([1]; read-out: MIC flag (*) at Ex #) [µg/mL]	MIC ([1]; read-out: MIC flag (*) at Example #) [µg/mL]
CC[C@H]1OC(=O)[C@H](C)[C@@H](O[C@H]2C[C@@](C)(OC)[C@](O)(CNCCS(=O)(=O)N(C)C)[C@H](C)O2)[C@H](C)[C@@H](O[C@@H]2O[C@H](C)C[C@H]3[C@H]2OC(C(F)(F)F)N3C)[C@](C)(O)C[C@@H](C)CN[C@H](C)[C@@H](O)[C@]1(C)O (stereo partly drawn) [Example A-13, 2-((((2S,3S,4R,6R)-6-(((2R,3S,4R,5R,8R,10R,11R,12S,13S,14R)-11-(((3aR,4S,6R,7aS)-1,6-dimethyl-2-(trifluoromethyl)hexahydro-2H-pyrano[4,3-d]oxazol-4-yl)oxy)-2-ethyl-3,4,10-trihydroxy-3,5,8,10,12,14-hexamethyl-15-oxo-1-oxa-6-azacyclopentadecan-13-yl)oxy)-3-hydroxy-4-methoxy-2,4-dimethyltetrahydro-2H-pyran-3-yl)methyl)amino)-N,N-dimethylethane-1-sulfonamide]	18	40	–	–
CC[C@H]1OC(=O)[C@H](C)[C@@H](O[C@H]2C[C@@](C)(OC)[C@](O)(CNCCC(=O)N(C)C)[C@H](C)O2)[C@H](C)[C@@H](O[C@@H]2O[C@H](C)C[C@H]3[C@H]2OC(C(F)(F)F)N3C)[C@](C)(O)C[C@@H](C)CN[C@H](C)[C@@H](O)[C@]1(C)O (stereo partly drawn) [Example A-17, 3-((((2S,3S,4R,6R)-6-(((2R,3S,4R,5R,8R,10R,11R,12S,13S,14R)-11-(((3aR,4S,6R,7aS)-1,6-dimethyl-2-(trifluoromethyl)hexahydro-2H-pyrano[4,3-d]oxazol-4-yl)oxy)-2-ethyl-3,4,10-trihydroxy-3,5,8,10,12,14-hexamethyl-15-oxo-1-oxa-6-azacyclopentadecan-13-yl)oxy)-3-hydroxy-4-methoxy-2,4-dimethyltetrahydro-2H-pyran-3-yl)methyl)amino)-N,N-dimethylpropanamide]	–	–	< 64	–
CC[C@H]1OC(=O)[C@H](C)[C@@H](O[C@H]2C[C@@](C)(OC)[C@](O)(CNCC3CCN(C(C)=O)CC3)[C@H](C)O2)[C@H](C)[C@@H](O[C@@H]2O[C@H](C)C[C@H]3[C@H]2OC(C(F)(F)F)N3C)[C@](C)(O)C[C@@H](C)CN[C@H](C)[C@@H](O)[C@]1(C)O (stereo partly drawn) [Example A-18, (2R,3S,4R,5R,8R,10R,11R,12S,13S,14R)-13-(((2R,4R,5S,6S)-5-((((1-acetylpiperidin-4-yl)methyl)amino)methyl)-5-hydroxy-4-methoxy-4,6-dimethyltetrahydro-2H-pyran-2-yl)oxy)-11-(((3aR,4S,6R,7aS)-1,6-dimethyl-2-(trifluoromethyl)hexahydro-2H-pyrano[4,3-d]oxazol-4-yl)oxy)-2-ethyl-3,4,10-trihydroxy-3,5,8,10,12,14-hexamethyl-1-oxa-6-azacyclopentadecan-15-one]	–	–	< 64	–
CC[C@H]1OC(=O)[C@H](C)[C@@H](O[C@H]2C[C@@](C)(OC)[C@](O)(CNCCn3ccccc3=O)[C@H](C)O2)[C@H](C)[C@@H](O[C@@H]2O[C@H](C)C[C@H]3[C@H]2OC(C(F)(F)F)N3C)[C@](C)(O)C[C@@H](C)CN[C@H](C)[C@@H](O)[C@]1(C)O (stereo partly drawn) [Example A-19, (2R,3S,4R,5R,8R,10R,11R,12S,13S,14R)-11-(((3aR,4S,6R,7aS)-1,6-dimethyl-2-(trifluoromethyl)hexahydro-2H-pyrano[4,3-d]oxazol-4-yl)oxy)-2-ethyl-3,4,10-trihydroxy-13-(((2R,4R,5S,6S)-5-hydroxy-4-methoxy-4,6-dimethyl-5-(((2-(2-oxopyridin-1(2H)-yl)ethyl)amino)methyl)tetrahydro-2H-pyran-2-yl)oxy)-3,5,8,10,12,14-hexamethyl-1-oxa-6-azacyclopentadecan-15-one]	–	–	< 64	–
CCCNC[C@]1(O)[C@H](C)O[C@@H](O[C@H]2[C@H](C)[C@@H](O[C@@H]3O[C@H](C)C[C@H]4[C@H]3OC(C(F)(F)F)N4C)[C@](C)(O)C[C@@H](C)CN(C)[C@H](C)[C@@H](O)[C@](C)(O)[C@@H](CC)OC(=O)[C@@H]2C)C[C@@]1(C)OC (stereo partly drawn) [Example A-26, (2R,3S,4R,5R,8R,10R,11R,12S,13S,14R)-11-(((3aR,4S,6R,7aS)-1,6-dimethyl-2-(trifluoromethyl)hexahydro-2H-pyrano[4,3-d]oxazol-4-yl)oxy)-2-ethyl-3,4,10-trihydroxy-13-(((2R,4R,5S,6S)-5-hydroxy-4-methoxy-4,6-dimethyl-5-((propylamino)methyl)tetrahydro-2H-pyran-2-yl)oxy)-3,5,6,8,10,12,14-heptamethyl-1-oxa-6-azacyclopentadecan-15-one]	–	–	< 64	–
CC[C@H]1OC(=O)[C@H](C)[C@@H](O[C@H]2C[C@@](C)(OC)[C@@H](O)[C@H](C)O2)[C@H](C)[C@@H](O[C@@H]2O[C@H](C)C[C@H]3[C@H]2OC(C(F)(F)F)N3C)[C@](C)(O)C[C@@H](C)CN(C)[C@H](C)[C@@H](O)[C@]1(C)O (stereo partly drawn) [Example C-1, (2R,3S,4R,5R,8R,10R,11R,12S,13S,14R)-11-(((3aR,4S,6R,7aS)-1,6-dimethyl-2-(trifluoromethyl)hexahydro-2H-pyrano[4,3-d]oxazol-4-yl)oxy)-2-ethyl-3,4,10-trihydroxy-13-(((2R,4R,5S,6S)-5-hydroxy-4-methoxy-4,6-dimethyltetrahydro-2H-pyran-2-yl)oxy)-3,5,6,8,10,12,14-heptamethyl-1-oxa-6-azacyclopentadecan-15-one]	–	–	–	< 64
